This is an account of results in patent US20230047569A1, “PESTICIDAL COMPLEX COMPOSITIONS FOR SYNERGISTIC DELIVERY OF PESTICIDAL ACTIVE INGREDIENTS AND METHODS OF SELECTION THEREOF” (0903608 B.C. Ltd., priority 2019, published 2023).

The test system of one data set is Trichoplusia ni. Put plainly: In-planta insecticidal efficacy on sprayed green cabbage plants (Abbott and Colby formulas). In kind it is in vivo. The following applies: 6 days; for Survival Rate (%): Coragen […] (0.104 ppm chlorantraniliprole) and/or aliphatic acid 750 ppm, 10% isopropanol; for Observed Efficacy, W (%): Coragen […] and/or aliphatic acid 750 ppm, Abbott corrected vs 10% isopropanol control. The procedure:
Water and 10% isopropanol were tested as control treatments.
Green cabbage plants (Brassica oleracea var. capitate, Danish Ballhead cultivar) were grown from seed (available from West Coast Seeds, Delta, BC, Canada) in potting soil for 4-6 weeks in a pest-free indoor growing environment. At between 4-6 weeks of age, each cabbage plant was sprayed with 20 mL of treatment solution using a pressurized CO2 sprayer from approximately 18 inches above the plant, and allowed to dry.
While for SF<1, antagonism is present and for SF=1, the efficacy of the compounds is merely additive.

Data set [1] is described as follows: Solubility / effective solubilized concentration in 10% DMSO/90% PDB by HPLC. The following applies: working stock: DMSO stock diluted 10-fold in PDB. The protocol:
This solution was diluted 10-fold in potato dextrose broth (PDB) to give a concentration of 0.05 mg/mL in 10% DMSO/90% PDB.
Concentrated stock solutions were prepared by dissolving pesticidal active ingredient in 100% dimethylsulfoxide (DMSO), which were then diluted 10-fold in potato dextrose broth (PDB) to give a working stock solution, as described below: […]

As to `CCC(N)C(=O)O` (stereo not shown) [2-aminobutyric acid], in the data set with Trichoplusia ni, the “Survival Rate (%)” value was 58.50% and the “Observed Efficacy, W (%)” value worked out at 8.59%.
As to `CCC(C)CCC(=O)O` (stereo not shown) [4-methylhexanoic acid], in the data set with Trichoplusia ni, the “Survival Rate (%)” value is listed as 62.50% and the “Observed Efficacy, W (%)” value is 2.34%.
In the case of `O=C(O)CCCCCCCCCO` [10-hydroxydecanoic acid], in the data set on Trichoplusia ni, the “Survival Rate (%)” value is listed as 40.50% and the “Observed Efficacy, W (%)” value is 36.72%.
`CO/C=C(/C(=O)OC)c1ccccc1Oc1cc(Oc2ccccc2C#N)ncn1` [Azoxystrobin, azoxystrobin] registered an effective solubilized concentration in data set [1] of 0.15 mg/mL.
